Where two headings read alike, the source gives them in different places.
Key:
[1] = target: T1, dopamine transporter (DAT) (Rattus norvegicus, UniProt P23977); assay: biochemical
rat DAT = rat DAT (Rattus norvegicus, UniProt P23977); assay: Rat DAT binding, [3H]Win 35,428, striatal membranes; details: for NET/DAT / SERT/DAT: Table 4, binding selectivity
Method: (§2) Briefly, rat striatal membranes were incubated with radioligand and inhibitor for 2 h on ice in a sodium phosphate buffer at a final Na^+ concentration of 30 nM, pH 7.4, at room temperature. The assays were terminated by filtration through glass fiber filtermats (Wallac, Inc., Gaithersburg, Md.), presoaked in 0.05% (v/v) polyethyleneimine, with a MACH3-96 Tomtec harvester (Wallac, Inc.). Filters were assayed for radioactivity in a Microbeta Plus liquid scintillation counter (Wallac, Inc.).

rat SERT = target: T2, rat SERT (Rattus norvegicus, UniProt P31652); assay: Rat SERT binding, [3H]citalopram, striatal membranes
T2 construct: from tissue; host or cells: rat striatum (membranes)
T2 sequence (P31652 whole entry): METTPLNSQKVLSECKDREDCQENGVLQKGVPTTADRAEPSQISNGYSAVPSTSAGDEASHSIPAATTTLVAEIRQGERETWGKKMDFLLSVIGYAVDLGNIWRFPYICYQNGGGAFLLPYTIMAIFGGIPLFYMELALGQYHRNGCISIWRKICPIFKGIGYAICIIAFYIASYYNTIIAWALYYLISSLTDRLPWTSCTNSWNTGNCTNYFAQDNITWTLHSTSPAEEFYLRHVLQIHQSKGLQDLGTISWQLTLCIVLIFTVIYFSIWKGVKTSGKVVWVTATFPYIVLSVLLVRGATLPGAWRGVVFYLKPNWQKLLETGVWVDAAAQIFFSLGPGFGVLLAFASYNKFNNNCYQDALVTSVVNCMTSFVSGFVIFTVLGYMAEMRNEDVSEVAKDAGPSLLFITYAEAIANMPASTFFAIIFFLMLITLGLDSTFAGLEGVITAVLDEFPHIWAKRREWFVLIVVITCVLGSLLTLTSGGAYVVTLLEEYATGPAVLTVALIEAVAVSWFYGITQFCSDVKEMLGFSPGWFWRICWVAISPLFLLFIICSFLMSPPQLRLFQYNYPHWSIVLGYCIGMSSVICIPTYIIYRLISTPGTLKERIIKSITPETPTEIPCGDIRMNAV
Method: as §2

[2] = target: T3, Norepinephrine (NET) Transporter (Rattus norvegicus, UniProt Q63380); assay: NET binding, [3H]nisoxetine
T3 construct: and norepinephrine Transporters in Rat Striatum; from tissue
T3 sequence (Q63380 1-617): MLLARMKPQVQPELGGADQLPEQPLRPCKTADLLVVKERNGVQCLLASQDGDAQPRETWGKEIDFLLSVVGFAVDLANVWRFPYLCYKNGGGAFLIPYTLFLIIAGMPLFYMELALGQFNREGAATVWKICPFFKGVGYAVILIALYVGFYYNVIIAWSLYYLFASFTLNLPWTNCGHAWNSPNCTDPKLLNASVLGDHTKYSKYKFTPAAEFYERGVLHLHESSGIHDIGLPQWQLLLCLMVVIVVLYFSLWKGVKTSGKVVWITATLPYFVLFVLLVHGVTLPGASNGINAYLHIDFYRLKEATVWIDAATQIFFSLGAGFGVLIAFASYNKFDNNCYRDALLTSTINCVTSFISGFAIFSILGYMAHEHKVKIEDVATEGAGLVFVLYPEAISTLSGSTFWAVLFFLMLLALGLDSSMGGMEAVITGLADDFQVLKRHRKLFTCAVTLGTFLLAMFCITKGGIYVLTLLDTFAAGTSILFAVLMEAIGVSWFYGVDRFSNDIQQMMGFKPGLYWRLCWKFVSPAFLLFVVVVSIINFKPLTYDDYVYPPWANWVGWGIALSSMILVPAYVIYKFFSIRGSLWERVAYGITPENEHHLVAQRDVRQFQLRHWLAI

[3] = target: T1, dopamine transporter (DAT); details: for [3H]DA/DAT Binding: Table 4, uptake/binding ratio
[4] = Stability of free base on storage; assay type: physicochemical; details: room temperature
Method: To a solution of oxalyl chloride ([…], […]) in CH2Cl2 (3 mL) cooled to −78° C. was added dropwise 108 mg dimethylsulfoxide (1.38 mmol, 3 equiv). The mixture was stirred for 10 min and a solution of 236 mg racemic trans-3-hydroxy-4-[2-(diphenylmethoxy)ethyl]-1-[(4-fluorophenyl)methyl]piperidine (0.46 mmol) in CH2Cl2 (1 mL) was added dropwise. […] […]; H, 5.92; N, 2.76.

NET = target: T4, NET (Rattus norvegicus, UniProt Q63380); assay: Uptake of [3H]NE by NET, rat hippocampus; assay type: biochemical; details: [3H]NE uptake, read-out: Ki (NET), inhibition of NE uptake
T4 construct: from tissue; host or cells: rat hippocampus
T4 sequence (Q63380 1-617): as above
Text: (§1) Transporter assays. The affinity of test compounds in binding to rat DAT and in inhibiting monoamine uptake was monitored as described by us previously. […] Rat cerebral cortex was used for assessing uptake of [^3H]serotonin by SERT and hippocampus for uptake of [^3H]NE by NET. […] At lease five triplicate concentrations of each test compound were studied, spaced evenly around the IC50 value. The latter was estimated by nonlinear computer curve-fitting procedures and converted to Ki with the Cheng-Prusoff equation.

DAT = target: T5, DAT (Rattus norvegicus, UniProt P23977); assay: Uptake of [3H]DA by DAT, rat striatum; assay type: biochemical; details: [3H]DA uptake, rat striatum; read-out: Ki (DAT), inhibition of DA uptake
T5 construct: from tissue; host or cells: rat striatum
T5 sequence (P23977 whole entry): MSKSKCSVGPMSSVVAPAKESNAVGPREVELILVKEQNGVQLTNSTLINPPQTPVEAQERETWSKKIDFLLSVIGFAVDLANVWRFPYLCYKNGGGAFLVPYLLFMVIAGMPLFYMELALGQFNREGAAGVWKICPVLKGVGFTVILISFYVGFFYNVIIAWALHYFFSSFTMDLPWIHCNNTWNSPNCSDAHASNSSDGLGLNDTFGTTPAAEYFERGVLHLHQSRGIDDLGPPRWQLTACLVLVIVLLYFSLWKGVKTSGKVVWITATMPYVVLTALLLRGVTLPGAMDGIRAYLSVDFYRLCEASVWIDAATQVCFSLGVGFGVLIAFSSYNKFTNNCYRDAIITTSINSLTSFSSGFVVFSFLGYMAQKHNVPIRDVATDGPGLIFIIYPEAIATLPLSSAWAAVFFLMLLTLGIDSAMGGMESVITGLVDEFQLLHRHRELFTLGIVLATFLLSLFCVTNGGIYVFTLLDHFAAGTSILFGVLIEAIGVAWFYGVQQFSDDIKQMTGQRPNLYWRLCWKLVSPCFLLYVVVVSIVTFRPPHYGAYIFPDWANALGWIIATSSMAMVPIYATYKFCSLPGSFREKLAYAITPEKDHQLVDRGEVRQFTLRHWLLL
Text: as §1

[5] = Table 3, read-out: NET, IC50, nM [3H]nisoxetine

rat DAT, sequence (P23977 whole entry): as above
T1 sequence (P23977 whole entry): as above

Structure (SMILES): Fc1ccc(CNC2CCC(C(c3ccccc3)c3ccccc3)NC2)cc1 (racemic) [(±)-7a, 2-diphenylmethyl-5-(4-fluorobenzylamino)piperidine]
- IC50 [1]: 0.0289 ± 0.0025 µM
- IC50 (rat DAT): 0.03 ± 0.0005 µM
- SERT/DAT selectivity ratio (rat DAT): 93.7
- NET/DAT (rat DAT): 44.9
- SERT/DAT (rat DAT): 93.7
- IC50 (rat SERT): 2.81 µM
- IC50 [2, 5]: 1350 nM
- [3H]DA/DAT Binding [3]: 0.03

Structure (SMILES): Fc1ccc(CN[C@H]2CC[C@H](C(c3ccccc3)c3ccccc3)NC2)cc1 (racemic) [(±)-7b, trans-2-diphenylmethyl-5-(4-fluorobenzylamino)piperidine]
- IC50 [1]: 0.106 ± 0.01 µM
- IC50 (rat DAT): 0.212 ± 0.02 µM
- SERT/DAT selectivity ratio (rat DAT): 6.28
- NET/DAT (rat DAT): 21
- SERT/DAT (rat DAT): 6.28
- IC50 (rat SERT): 1.33 µM
- IC50 [2, 5]: 4470 nM
- [3H]DA/DAT Binding [3]: 0.5

Structure (SMILES): O=C1CN(Cc2ccc(F)cc2)CCC1CCOC(c1ccccc1)c1ccccc1 (racemic) [Example 18, racemic 3-Keto-4-[2-(diphenylmethoxy)ethyl]-1-[(4-fluorophenyl)methyl]piperidine]
- stability of the free base [4]: decomposes at room temperature
- IC50 (rat DAT): 0.099 ± 0.018 µM
- IC50 (rat SERT): 7.75 µM
- IC50 ([2]; Table 5, rat striatum, read-out: NET, IC50, nM [3H]nisoxetine): 6300 nM

Structure (SMILES): O[C@@H](CN[C@H]1CC[C@@H](C(c2ccccc2)c2ccccc2)NC1)c1ccc(F)cc1 [Example 4a, (R)-2-[(3S,6S)-6-benzhydrylpiperidin-3-ylamino)-1-(4-fluorophenyl)ethanol]
- Ki (NET): 1.44 µM
- Ki (DAT): 0.236 µM

Structure (SMILES): O[C@H](CN[C@H]1CC[C@@H](C(c2ccccc2)c2ccccc2)NC1)c1ccc(F)cc1 [Example 4b, (S)-2-[(3S,6S)-6-benzhydrylpiperidin-3-ylamino)-1-(4-fluorophenyl)ethanol]
- Ki (NET): 0.306 µM
- Ki (DAT): 0.152 µM

Structure (SMILES): Fc1ccc(CN2CCC(CNOC(c3ccccc3)c3ccccc3)CC2)cc1 [Example 7, 4-[((2-Diphenylmethoxy)amino)methyl]-1-[(4-fluorophenyl)methyl]piperidine]
- IC50 [1]: 0.0166 ± 0.0028 µM
- IC50 (rat DAT; read-out: DAT, IC50, Table 1): 0.0344 ± 0.0042 µM
- IC50 (rat SERT; Table 1, read-out: SERT, IC50): 0.626 ± 0.033 µM
- IC50 [2]: 691 ± 68 nM

Structure (SMILES): Fc1ccc(CN2CCC(CNCC(c3ccccc3)c3ccccc3)CC2)cc1 [Example 11, 4-[[2-(Diphenyl)ethyl]aminomethyl]-1-[(4-fluorophenyl)methyl]piperidine]
- NET/DAT (rat DAT): 5.6
- SERT/DAT (rat DAT): 6.9
- affinity for the DAT (rat DAT; in words): strong affinity
- IC50 (rat DAT; read-out: DAT, IC50, Table 1): 0.0197 ± 0.0014 µM
- IC50 (rat SERT; Table 1, read-out: SERT, IC50): 0.137 ± 0.0456 µM
- affinity for the SERT (rat SERT; in words): moderate affinity
- IC50 ([2]; Table 1, read-out: NET, IC50): 1110 nM
- [3H]DA/DAT Binding [3]: 2.5
- IC50 ([3]; read-out: [3H]DA Inhibition, IC50, Table 2, rat synaptosome tissue): 0.0496 ± 0.0072 µM

Source: patent US8211916B2, “N- and O-substituted 4-[2-(diphenylmethoxy)-ethyl]-1-[(phenyl)methyl]piperidine analogs and methods of treating CNS disorders therewith” (Wayne State University, priority 2000, dated 2012)
